Source: article PMC9044501 (Journal of molecular biology, 2021)
Values belong to the compound of their own block, whether it stands above or below them.

Legend:
[1] = target: T1, myosin in bovine cardiac synthetic thick filaments (BcSTF) (Bos taurus, UniProt Q9BE39); assay: Single mant-ATP turnover kinetics in BcSTF; assay type: biochemical
[2] = target: T2, bovine cardiac myofibrils (BcMF) (Bos taurus, UniProt Q9BE39); assay: Single mant-ATP turnover kinetics in BcMF; assay type: biochemical
[3] = target: T1, myosin in bovine cardiac synthetic thick filaments (BcSTF); assay: Basal myosin ATPase activity; assay type: biochemical; conditions: read-out: Basal ATPase (BcSTF) IC50, 1 μM myosin, 23°C
[4] = target: T2, bovine cardiac myofibrils (BcMF); assay: Myofibrillar ATPase activity at pCa 6; assay type: biochemical; conditions: read-out: Myofibrillar ATPase (BcMF) IC50, pCa 6, 23°C
[5] = target: T3, human β-cardiac 25-hep HMM (Homo sapiens, UniProt P12883); assay: SEC-MALS-DLS light scattering of 25-hep HMM; conditions: at 20 μM mavacamten and 50 μM para-nitroblebbistatin
[6] = target: T3, human β-cardiac 25-hep HMM; assay: Small-angle X-ray scattering; conditions: at 20 μM mavacamten and 50 μM para-nitroblebbistatin
[7] = tested on: myosin; assay: Blebbistatin binding to myosin in the presence of mavacamten; conditions: Fig. S2

T2 sequence (Q9BE39 whole entry): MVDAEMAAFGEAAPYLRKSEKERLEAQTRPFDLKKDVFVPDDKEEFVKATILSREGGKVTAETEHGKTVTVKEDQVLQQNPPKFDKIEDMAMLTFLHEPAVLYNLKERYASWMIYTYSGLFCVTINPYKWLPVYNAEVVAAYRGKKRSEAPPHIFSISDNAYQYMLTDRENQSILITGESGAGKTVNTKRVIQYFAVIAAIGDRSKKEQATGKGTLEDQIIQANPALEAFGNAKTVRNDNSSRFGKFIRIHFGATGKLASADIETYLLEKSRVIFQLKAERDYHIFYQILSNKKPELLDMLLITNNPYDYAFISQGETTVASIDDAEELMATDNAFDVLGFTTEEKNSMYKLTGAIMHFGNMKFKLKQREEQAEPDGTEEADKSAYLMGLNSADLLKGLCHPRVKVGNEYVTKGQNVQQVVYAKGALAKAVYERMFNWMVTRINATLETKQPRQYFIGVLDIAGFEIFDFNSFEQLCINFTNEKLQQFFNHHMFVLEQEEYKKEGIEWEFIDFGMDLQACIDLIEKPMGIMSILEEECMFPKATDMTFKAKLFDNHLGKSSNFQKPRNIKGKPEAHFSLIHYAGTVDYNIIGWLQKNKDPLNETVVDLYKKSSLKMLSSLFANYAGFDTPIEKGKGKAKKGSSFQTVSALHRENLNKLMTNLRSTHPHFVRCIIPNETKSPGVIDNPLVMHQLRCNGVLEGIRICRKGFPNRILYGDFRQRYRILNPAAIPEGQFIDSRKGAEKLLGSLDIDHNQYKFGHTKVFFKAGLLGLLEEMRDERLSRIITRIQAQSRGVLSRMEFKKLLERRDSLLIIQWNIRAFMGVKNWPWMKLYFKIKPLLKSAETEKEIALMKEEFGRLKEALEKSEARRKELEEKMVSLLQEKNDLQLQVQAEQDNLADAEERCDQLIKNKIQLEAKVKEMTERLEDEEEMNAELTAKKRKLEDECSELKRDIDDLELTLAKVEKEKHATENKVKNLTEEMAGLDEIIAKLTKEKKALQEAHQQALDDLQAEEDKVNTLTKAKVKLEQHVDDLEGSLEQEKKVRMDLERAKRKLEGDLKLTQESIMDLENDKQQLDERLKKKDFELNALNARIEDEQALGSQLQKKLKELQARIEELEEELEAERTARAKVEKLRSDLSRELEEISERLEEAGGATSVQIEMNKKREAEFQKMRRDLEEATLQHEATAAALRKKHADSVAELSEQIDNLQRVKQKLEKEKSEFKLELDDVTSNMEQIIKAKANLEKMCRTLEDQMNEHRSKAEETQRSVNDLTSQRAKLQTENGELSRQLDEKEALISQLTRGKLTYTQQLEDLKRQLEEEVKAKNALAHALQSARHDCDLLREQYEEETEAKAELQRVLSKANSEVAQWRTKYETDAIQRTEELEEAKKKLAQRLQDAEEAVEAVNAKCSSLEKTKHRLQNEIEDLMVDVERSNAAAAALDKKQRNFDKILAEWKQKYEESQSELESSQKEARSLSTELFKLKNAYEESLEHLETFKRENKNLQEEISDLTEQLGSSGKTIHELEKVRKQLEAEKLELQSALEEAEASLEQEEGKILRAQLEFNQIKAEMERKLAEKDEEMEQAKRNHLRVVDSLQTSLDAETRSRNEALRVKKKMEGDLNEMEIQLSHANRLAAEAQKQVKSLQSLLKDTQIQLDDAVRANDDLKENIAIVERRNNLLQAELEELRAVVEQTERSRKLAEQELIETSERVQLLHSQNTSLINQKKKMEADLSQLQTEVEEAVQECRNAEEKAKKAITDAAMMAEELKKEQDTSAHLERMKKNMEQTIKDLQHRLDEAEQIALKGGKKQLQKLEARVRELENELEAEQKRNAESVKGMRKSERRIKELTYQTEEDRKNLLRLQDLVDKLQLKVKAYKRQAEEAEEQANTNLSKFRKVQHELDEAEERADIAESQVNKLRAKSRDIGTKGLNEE
T2 sequence (P85100 whole entry partner): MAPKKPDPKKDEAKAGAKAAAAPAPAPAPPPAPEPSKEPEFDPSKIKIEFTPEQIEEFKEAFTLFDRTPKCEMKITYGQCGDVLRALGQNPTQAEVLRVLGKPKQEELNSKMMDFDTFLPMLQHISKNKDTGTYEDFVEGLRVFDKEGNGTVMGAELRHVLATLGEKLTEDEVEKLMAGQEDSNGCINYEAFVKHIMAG
T2 sequence (Q3SZE5 whole entry partner): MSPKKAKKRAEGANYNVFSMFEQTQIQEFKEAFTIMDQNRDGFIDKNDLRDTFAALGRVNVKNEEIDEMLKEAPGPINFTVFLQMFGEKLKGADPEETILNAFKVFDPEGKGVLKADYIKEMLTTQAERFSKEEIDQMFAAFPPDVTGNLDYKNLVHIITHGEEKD
T1 sequence (Q9BE39 whole entry): as the sequence (Q9BE39 whole entry) above
T1 sequence (P85100 whole entry partner): as the sequence (P85100 whole entry partner) above
T1 sequence (Q3SZE5 whole entry partner): as the sequence (Q3SZE5 whole entry partner) above

Hill coefficient ([1]; DRX to SRX shift, up to 3.125 μM): 2–4
magnitude of myosin SRX population ([1]; saturating concentrations): ~ 100%
magnitude of myosin SRX population ([2]; saturating concentrations): ~ 65%
Compound: CC(C)n1c(=O)cc(N[C@@H](C)c2ccccc2)[nH]c1=O [Mavacamten, mavacamten]

IC50 [3]: 2.37 ± 0.12 µM
IC50 [4]: 4.05 ± 0.34 µM
lifetime of mant-nucleotides for compound-bound myosin ([1]; experiment duration 2400 s): > 2400 s
IC50 ([1]; read-out: DRX ATPase Rate, kfast (BcSTF), half-maximal decrease, 0μM blebbistatin): > 12.5 µM
EC50 ([1]; read-out: SRX Amplitude, Aslow (BcSTF), half-maximal increase, 0μM blebbistatin): > 12.5 µM
IC50 ([2]; read-out: DRX ATPase Rate, kfast (BcMF), half-maximal decrease): > 12.5 µM
EC50 ([2]; read-out: SRX Amplitude, Aslow (BcMF), half-maximal increase): > 12.5 µM
Hydrodynamic radius of 25-hep HMM (DLS) [5]: 84.1±2.2 Å
Molecular Mass of 25-hep HMM (MALS) [5]: 363±14 kDa
I(0), Guinier Analysis [6]: 0.04 ± 0.01 cm⁻¹
I(0), P(r) Analysis [6]: 0.04 ± 0 cm⁻¹
Porod volume, P(r) Analysis [6]: 1.42e6 Å^−3
Rg, Guinier Analysis [6]: 102.5±1.5 Å
Rg, P(r) Analysis [6]: 124±10 Å
reduction of Rg (Guinier) compared to untreated 25-hep HMM [6]: 14%
reduction of Rg (P(r) analysis) compared to untreated 25-hep HMM [6]: 11%
Compound: Cc1ccc2c(c1)C(=O)[C@]1(O)CCN(c3ccc([N+](=O)[O-])cc3)C1=N2 [Para-nitroblebbistatin, para-nitroblebbistatin]

binding of blebbistatin in the presence of mavacamten [7]: not compromised
Compound: Cc1ccc2c(c1)C(=O)C1(O)CCN(c3ccccc3)C1=N2 (centres unmarked) [blebbistatin]
